Measured values taken from PubChem BioAssay (NCI).
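Where inhibition never reached the appropriate level, the endpoint shown equals the highest concentration tested. Otherwise, values were interpolated linearly from a five-concentration, 48-hour dose response in 96-well plates. GI50: concentration for 50% inhibition of growth. Definition used: TGI = concentration required for complete inhibition of growth.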

Assays:
Assay in all cases: inhibition of tumour cell growth, NCI panel, 48 h
[1] = system: CCRF-CEM leukemia
[2] = system: KM12 colon
[3] = system: RXF 393 renal
[4] = system: EKVX NSCLC
[5] = system: BT-549 breast
[6] = system: HS 578T breast
[7] = system: RPMI-8226 leukemia
[8] = system: DU-145 prostate
[9] = system: HL-60(TB) leukemia
[10] = system: COLO 205 colon
[11] = system: SF-539 CNS
[12] = system: M14 melanoma
[13] = system: SF-268 CNS
[14] = system: SN12C renal
[15] = system: UO-31 renal
[16] = system: HT29 colon
[17] = system: NCI-H226 lung
[18] = system: MDA-MB-231 breast
[19] = system: MDA-MB-435
[20] = system: ACHN renal
[21] = system: MOLT-4 leukemia
[22] = system: K-562 leukemia
[23] = system: HCT-15 colon
[24] = system: SF-295 CNS
[25] = system: U251 CNS
[26] = system: SNB-19 CNS
[27] = system: OVCAR-3 ovarian
[28] = system: MCF7 breast
[29] = system: HOP-92 NSCLC
[30] = system: 786-0 renal
[31] = system: NCI-H460 lung
[32] = system: T-47D breast
[33] = system: SNB-75 CNS
[34] = system: TK-10 renal
[35] = system: OVCAR-4 ovarian
[36] = system: SK-MEL-2 melanoma
[37] = system: LOX IMVI melanoma
[38] = system: HOP-62 NSCLC
[39] = system: HCT-116 colon
[40] = system: UACC-257 melanoma
[41] = system: NCI/ADR-RES ovarian
[42] = system: IGROV1 ovarian
[43] = system: SK-MEL-28 melanoma
[44] = system: A549 NSCLC
[45] = system: OVCAR-8 ovarian
[46] = system: SR leukemia
[47] = system: UACC-62 melanoma
[48] = system: PC-3 prostate
[49] = system: SW-620 colon
[50] = system: NCI-H23 lung
[51] = system: MALME-3M melanoma
[52] = system: OVCAR-5 ovarian
[53] = system: NCI-H522 lung
[54] = system: CAKI-1 renal
[55] = system: A498 renal
[56] = system: HCC-2998 colon
[57] = system: SK-MEL-5 melanoma
[58] = system: SK-OV-3 ovarian
[59] = system: MDA-N

SMILES: CC1(C)N=C(N)N=C(N)N1c1ccc(CCC(=O)Nc2ccc(S(=O)(=O)F)cc2)c(Cl)c1
- GI50 [1]: 0.522 µM
- TGI [1]: > 100 µM
- GI50 [2]: 0.243 µM
- TGI [2]: 28.3 µM
- GI50 [3]: > 45.4 µM
- TGI [3]: > 100 µM
- GI50 [4]: 2.78 µM
- TGI [4]: > 100 µM
- GI50 [5]: 0.995 µM
- TGI [5]: > 100 µM
- GI50 [6]: > 84.7 µM
- TGI [6]: > 100 µM
- GI50 [7]: 0.515 µM
- TGI [7]: > 100 µM
- GI50 [8]: 0.593 µM
- TGI [8]: > 100 µM
- GI50 [9]: 0.142 µM
- TGI [9]: > 100 µM
- GI50 [10]: 2.52 µM
- TGI [10]: > 100 µM
- GI50 [11]: 0.509 µM
- TGI [11]: > 38.7 µM
- GI50 [12]: 0.762 µM
- TGI [12]: > 100 µM
- GI50 [13]: 0.507 µM
- TGI [13]: > 100 µM
- GI50 [14]: 0.487 µM
- TGI [14]: > 100 µM
- GI50 [15]: 63.6 µM
- TGI [15]: > 100 µM
- GI50 [16]: 0.15 µM
- TGI [16]: > 100 µM
- GI50 [17]: 14.4 µM
- TGI [17]: > 100 µM
- GI50 [18]: > 64.9 µM
- TGI [18]: > 100 µM
- GI50 [19]: 0.296 µM
- TGI [19]: > 100 µM
- GI50 [20]: 5.37 µM
- TGI [20]: > 100 µM
- GI50 [21]: 1.2 µM
- TGI [21]: > 100 µM
- GI50 [22]: 0.342 µM
- TGI [22]: > 100 µM
- GI50 [23]: 2.92 µM
- TGI [23]: > 100 µM
- GI50 [24]: 1.09 µM
- TGI [24]: > 100 µM
- GI50 [25]: 0.498 µM
- TGI [25]: > 100 µM
- GI50 [26]: 5.22 µM
- TGI [26]: > 100 µM
- GI50 [27]: 9.86 µM
- TGI [27]: > 100 µM
- GI50 [28]: 0.515 µM
- TGI [28]: > 100 µM
- GI50 [29]: 6.54 µM
- TGI [29]: > 100 µM
- GI50 [30]: 0.697 µM
- TGI [30]: > 100 µM
- GI50 [31]: 0.0716 µM
- TGI [31]: > 100 µM
- GI50 [32]: 12.4 µM
- TGI [32]: > 100 µM
- GI50 [33]: 9.75 µM
- TGI [33]: > 100 µM
- GI50 [34]: 0.604 µM
- TGI [34]: > 100 µM
- GI50 [35]: 5.51 µM
- TGI [35]: > 100 µM
- GI50 [36]: 36.1 µM
- TGI [36]: > 100 µM
- GI50 [37]: 0.402 µM
- TGI [37]: > 100 µM
- GI50 [38]: 1.86 µM
- TGI [38]: > 100 µM
- GI50 [39]: 0.268 µM
- TGI [39]: > 100 µM
- GI50 [40]: > 42.5 µM
- TGI [40]: > 100 µM
- GI50 [41]: > 100 µM
- TGI [41]: > 100 µM
- GI50 [42]: 0.0551 µM
- TGI [42]: > 86.5 µM
- GI50 [43]: 22.8 µM
- TGI [43]: > 100 µM
- GI50 [44]: 0.517 µM
- TGI [44]: > 100 µM
- GI50 [45]: 4.66 µM
- TGI [45]: > 100 µM
- GI50 [46]: 0.179 µM
- TGI [46]: > 100 µM
- GI50 [47]: 0.287 µM
- TGI [47]: > 100 µM
- GI50 [48]: 0.0926 µM
- TGI [48]: 49.7 µM
- GI50 [49]: 0.144 µM
- TGI [49]: > 100 µM
- GI50 [50]: 0.888 µM
- TGI [50]: > 100 µM
- GI50 [51]: 19.9 µM
- TGI [51]: > 100 µM
- GI50 [52]: 2.4 µM
- TGI [52]: > 100 µM
- GI50 [53]: 0.642 µM
- TGI [53]: > 100 µM
- GI50 [54]: 7.73 µM
- TGI [54]: > 81.1 µM
- GI50 [55]: 61.9 µM
- TGI [55]: > 100 µM
- GI50 [56]: 0.997 µM
- TGI [56]: > 100 µM
- GI50 [57]: 0.591 µM
- TGI [57]: > 100 µM
- GI50 [58]: 8.56 µM
- TGI [58]: > 100 µM

SMILES: CCCCCCCCCC[C@@H](OC(C)=O)[C@@H]1CC[C@@H]([C@@H]2CC[C@@H]([C@@H](O)CC#C/C=C/CCCCCCC[C@@]3(Sc4ccccc4)C[C@H](C)OC3=O)O2)O1
- TGI [1]: > 10 µM
- TGI [2]: > 10 µM
- TGI [3]: > 10 µM
- TGI [4]: > 10 µM
- TGI [7]: > 10 µM
- TGI [8]: > 10 µM
- TGI [9]: > 10 µM
- TGI [10]: > 10 µM
- TGI [12]: > 10 µM
- TGI [13]: > 10 µM
- TGI [14]: > 10 µM
- TGI [16]: > 10 µM
- TGI [18]: > 10 µM
- TGI [21]: > 10 µM
- TGI [22]: > 10 µM
- TGI [23]: > 10 µM
- TGI [24]: > 10 µM
- TGI [28]: > 10 µM
- TGI [30]: > 10 µM
- TGI [32]: > 10 µM
- TGI [33]: > 10 µM
- TGI [34]: > 10 µM
- TGI [37]: > 10 µM
- TGI [38]: > 10 µM
- TGI [40]: > 10 µM
- TGI [42]: > 10 µM
- TGI [43]: > 10 µM
- TGI [44]: > 10 µM
- TGI [45]: > 10 µM
- TGI [46]: > 10 µM
- TGI [47]: > 10 µM
- TGI [59]: > 10 µM
- TGI [48]: > 10 µM
- TGI [49]: > 10 µM
- TGI [50]: > 10 µM
- TGI [51]: > 10 µM
- TGI [54]: > 10 µM
- TGI [56]: > 10 µM
- TGI [57]: > 10 µM
- TGI [58]: > 10 µM
